# US20260083750A1, “SMALL MOLECULE INHIBITORS OF KRAS PROTEINS” (MERCK SHARP & DOHME LLC, priority 2022, published 2026)
# Columns and labels:
# [1] = molecular target: T1, KRAS-G12C (C51S/C80L/C118S) (Homo sapiens, UniProt P01116, C118S/C51S/C80L/G12C); experiment: SOS-catalyzed nucleotide exchange assay (Procedure A, TR-FRET); format: biochemical; settings: 60 min preincubation, SOS + GTP, read-out: KRAS G12C GNE IC50
# T1 construct: N-terminal biotin-acceptor peptide […]
# In short: (§1)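 Preformed biotinylated RAS–Bodipy-GDP/Tb-streptavidin complex preincubated with compound 60 min at room temperature, then SOS plus GTP (3 mM final) added. Exchange times: G13D 30 min, G12C/D 60 min, G12V 90 min. Final RAS/SOS: G12C 3 nM/40 nM, G12D 1 nM/40 nM, G12V 1.25 nM/160 nM, G13D 1.25 nM/0 nM. TR-FRET 520/495 ratio, four-parameter fit.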
# [2] = molecular target: T2, KRAS-G12D (Homo sapiens, UniProt P01116, G12D); experiment: as above; format: biochemical; settings: 60 min preincubation, SOS + GTP, read-out: KRAS G12D GNE IC50
# T2 construct: N-terminal biotin-acceptor peptide […]
# In short: as §1
# [3] = molecular target: T3, KRAS-G12V (Homo sapiens, UniProt P01116, G12V); experiment: as above; format: biochemical; settings: 60 min preincubation, SOS + GTP, read-out: KRAS G12V GNE IC50
# T3 construct: N-terminal biotin-acceptor peptide […]
# In short: as §1
# [4] = molecular target: T4, KRAS-G13D (Homo sapiens, UniProt P01116, G13D); experiment: as above; format: biochemical; settings: 60 min preincubation, GTP, read-out: KRAS G13D GNE IC50
# T4 construct: N-terminal biotin-acceptor peptide […]
# In short: as §1
# [5] = molecular target: HRAS (Homo sapiens, UniProt P01112); experiment: as above; format: biochemical; settings: 60 min preincubation, SOS + GTP, read-out: HRAS GNE IC50
# From the text: (§2) Procedure for SOS-Catalyzed Nucleotide Exchange Assay for KRAS-G12C/D/V, G13D, HRAS, and NRAS (Procedure A)
# (§3) Recombinant KRAS-G12C protein used in this assay has an additional triple mutation (C51S/C80L/C118S), whereas KRAS-G12D/V, G13D, HRAS and NRAS are in context of their WT protein sequence background. Specifically, the SOS-catalyzed nucleotide exchange assay utilizes a preformed TR-FRET complex containing a specific biotinylated RAS protein (KRAS-G12C/V/D, G13D, HRAS, NRAS; described above) with Bodipy-GDP, and Terbium-streptavidin. Compounds are preincubated with this complex for 60 minutes. Subsequently, recombinant human SOS protein and unlabeled GTP are added to initiate the exchange reaction. Small molecule inhibitors stabilize the Bodipy-GDP complex whereas the untreated protein rapidly exchanges Bodipy-GDP for unlabeled GTP resulting in reduced TR-FRET signal.
# (§4) To assemble the preformed TR-FRET complexes, each biotinylated RAS protein is diluted to 2 μM in an EDTA Buffer (20 mM HEPES pH 7.5, 50 mM sodium chloride, 10 mM EDTA, and 0.01% Tween) and incubated at room temperature for one hour. This mixture is then further diluted to 90 nM in an Assay Buffer (20 mM HEPES pH 7.5, 150 mM sodium chloride, 10 mM magnesium chloride, and 0.005% Tween) containing 15 nM of Terbium-Streptavidin (Invitrogen, catalog #PV3577) and 900 nM of Bodipy-GDP (Invitrogen, catalog #G22360) and incubated at room temperature for six hours. It should be noted that this preformed TR-FRET complex for each of the RAS protein were made ahead of time, aliquoted and stored at −80° C. until the day of the experiment.
# (§5) Each test compound (10 mM stock in DMSO) is diluted in DMSO to make a final-10-point, 3-fold dilution and is acoustically dispensed into a 384-well assay plate (Corning, catalog #3820) using an Echo 550 (Labcyte). Each well of the assay plate receives 3 μL of a specific 3× RAS preformed TR-FRET complex and 3 μL of Assay Buffer and is incubated at room temperature for 60 minutes (preincubation time). Each well then receives 3 μL of 3× recombinant human SOS protein and GTP (Sigma, G8877) in Assay Buffer and is incubated at room temperature for 30 minutes (G13D), 60 minutes (G12C/D, H/NRAS) or 90 minutes for G12V. The final reaction in each well of […] consists of 3 mM GTP, specific Ras and SOS proteins in the following concentrations: KRAS-G12C/SOS=3 nM/40 nM, KRAS-G12D/SOS=1 nM/40 nM, KRAS-G12V/SOS=1.25 nM/160 nM, KRAS-G13D/SOS=1.25 nM/0 nM, HRAS & NRAS=1.25 nM/40 nM.
# (§6) The time-resolved fluorescence resonance energy transfer (TR-FRET) signal is measured on an Envision (PerkinElmer) plate reader: Excitation filter=340 nm; emission1=495 nm; emission2=520 nm; dichroic mirror=D400/D505; delay time=[…]. The signal of each well is determined as the ratio of the emission at 520 nm to that at 495 nm. Percent effect of each well is determined after normalization to control wells containing DMSO (no effect) or a saturating concentration of inhibitor (max effect). The apparent effect as a function of compound concentration is fit to a four-parameter logistic equation.
# [6] = molecular target: NRAS (Homo sapiens, UniProt P01111); experiment: as above; format: biochemical; settings: 60 min preincubation, SOS + GTP, read-out: NRAS GNE IC50
# From the text: as §2, §3, §4, §5, §6
# [7] = test system: PANC08.13 cells (homozygous KRAS-G12D activating mutation); experiment: Cellular phospho-ERK assay in G12D cell line; format: cell-based; settings: Homo sapiens, PANC-08-13, 2 hours compound incubation, ratio of p-ERK vs. total ERK, read-out: PANC 0813 pERK IC50
# In short: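 Cells (10,000-15,000/well) were seeded overnight, then treated for 2 h at 37 °C with a 10-point 1:3 titration from 30 μM final. Lysates were assayed by AlphaLISA SureFire Ultra multiplex, with the p-ERK/total-ERK ratio as read-out; IC50 came from a 4-parameter logistic fit.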
# [8] = test system: SW620 cells (homozygous KRAS-G12V activating mutation); experiment: Cellular phospho-ERK assay in G12V cell line; format: cell-based; settings: Homo sapiens, SW-620, 2 hours compound incubation, ratio of p-ERK vs. total ERK, read-out: SW620 pERK IC50
# Procedure: Procedure for Cellular Phospho-ERK Assay in G12D and G12V Cell Lines
# PANC08.13 cells (ATCC® CRL-2551™), containing homozygous KRAS-G12D activating mutation, were cultured in growth medium made of RPMI1640-GlutaMAX™—I (ThermoFisher Scientific 61870) containing 15% heat inactivated fetal bovine serum (ThermoFisher Scientific 10091148)). SW620 cells (ATCC® […]), containing homozygous KRAS-G12V activating mutation, were cultured in growth medium that contains RPMI 1640-GlutaMAX™—I (ThermoFisher Scientific 61870) containing 10% heat inactivated fetal bovine serum (ThermoFisher Scientific 10091148).
# Cells for the assay were harvested in growth medium after TrypLE (ThermoFisher scientific 12604021) digestion and were seeded in a 384-well collagen coated cell culture plate (Corning 356702) at a density of 10,000-15,000 cells/20 uL/well, and incubated at 37° C., 5% CO2 overnight. The compound (with 10 mM stock concentration) dose-response titrations were prepared [30 μM final ERK detection assay concentration and 1:3 dilutions, 10-point dose response] and appropriate amounts (270 nL) of test compounds were dispensed in a 384-well intermediate plate using an Echo 550 liquid handler. 30 uL/well of RPMI medium 1640-GlutaMAX™—I was added to the intermediate plate and the contents of the intermediate plate (10 uL/well) were then transferred to the 384-well collagen coated cell culture plate, which was incubated at 37° C., 5% CO2 for 2 hours. After removal of medium from the collagen coated cell culture plate, cells were lysed in lysis buffer from Alpha SureFire® Ultra™ Multiplex p-ERK and total ERK assay kit (PerkinElmer MPSU-PTERK) containing Halt™ Protease and Phosphatase inhibitor cocktail (ThermoFisher Scientific 78446) at room temperature with constant shaking at 300 rpm for 30 minutes. The cell lysates were then transferred to an OptiPlate-384 plate (PerkinElmer 6005620), and the phosphorylation of ERK (p-ERK) and total ERK levels were detected by Alpha SureFire® Ultra™ Multiplex p-EEK kit and total ERK assay kit (PerkinElmer MPSU-PTERK) following the manufacturer's protocol. Assay plates were read on a EnVision Multimode Plate Reader (PerkinElmer), and the ratio of p-ERK vs. total ERK in each well was used as the final readout. Dose response curves were analyzed using a 4-parameter logistic model to calculate IC50 values using Spotfire software.
# T1 sequence (P01116 with tags, fused parts or gaps isoform P01116-2 G12C/C51S/C80L/C118S): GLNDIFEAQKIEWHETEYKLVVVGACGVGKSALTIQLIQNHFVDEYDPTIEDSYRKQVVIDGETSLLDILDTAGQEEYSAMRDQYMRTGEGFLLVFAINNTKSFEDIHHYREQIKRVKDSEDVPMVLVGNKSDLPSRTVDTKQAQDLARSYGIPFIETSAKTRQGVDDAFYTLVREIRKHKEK
# Sequence of HRAS (P01112 with tags, fused parts or gaps): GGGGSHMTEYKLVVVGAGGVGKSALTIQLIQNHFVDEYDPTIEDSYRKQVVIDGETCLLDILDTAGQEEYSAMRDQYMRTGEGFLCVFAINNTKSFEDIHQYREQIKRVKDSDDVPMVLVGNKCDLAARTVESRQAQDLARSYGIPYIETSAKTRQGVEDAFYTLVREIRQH
# Sequence of NRAS (P01111 with tags, fused parts or gaps): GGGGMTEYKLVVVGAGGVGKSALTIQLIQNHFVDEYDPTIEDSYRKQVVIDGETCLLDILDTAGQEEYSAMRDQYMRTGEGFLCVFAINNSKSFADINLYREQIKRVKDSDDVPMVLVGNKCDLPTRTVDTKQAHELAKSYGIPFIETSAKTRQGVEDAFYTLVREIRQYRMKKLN
# T3 sequence (P01116 with tags, fused parts or gaps isoform P01116-2 G12V): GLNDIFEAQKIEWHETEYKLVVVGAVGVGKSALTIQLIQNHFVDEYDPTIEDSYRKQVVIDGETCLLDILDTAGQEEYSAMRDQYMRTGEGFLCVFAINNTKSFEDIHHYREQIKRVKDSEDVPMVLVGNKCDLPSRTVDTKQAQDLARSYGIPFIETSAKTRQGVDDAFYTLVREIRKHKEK
# T4 sequence (P01116 with tags, fused parts or gaps isoform P01116-2 G13D): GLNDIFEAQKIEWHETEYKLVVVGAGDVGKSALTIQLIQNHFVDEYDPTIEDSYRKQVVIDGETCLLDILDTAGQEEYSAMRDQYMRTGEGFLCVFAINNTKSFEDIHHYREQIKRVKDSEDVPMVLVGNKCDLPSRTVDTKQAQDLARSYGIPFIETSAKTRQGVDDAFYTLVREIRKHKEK
# T2 sequence (P01116 with tags, fused parts or gaps isoform P01116-2 G12D): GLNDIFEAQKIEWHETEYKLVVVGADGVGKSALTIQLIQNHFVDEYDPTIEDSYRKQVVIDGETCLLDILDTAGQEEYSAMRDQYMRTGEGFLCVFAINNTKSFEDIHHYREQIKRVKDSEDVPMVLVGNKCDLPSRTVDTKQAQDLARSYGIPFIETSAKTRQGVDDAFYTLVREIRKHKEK
SMILES,IC50 [1] [nM],IC50 [2] [nM],IC50 [3] [nM],IC50 [4] [nM],IC50 [5] [µM],IC50 [6] [µM],IC50 [7] [nM],IC50 [8] [nM]
"N#Cc1c(N)sc2c(F)ccc(-c3c(Cl)cc4c(N5CCCOCC5)nc(OC[C@@]56CCCN5C[C@H](F)C6)nc4c3F)c12 [Ex. 4, 2-amino-4-(6-chloro-8-fluoro-2-(((2R,7aS)-2-fluorotetrahydro-1H-pyrrolizin-7a(5H)-yl)methoxy)-4-(1,4-oxazepan-4-yl)quinazolin-7-yl)-7-fluorobenzo[b]thio-phene-3-carbonitrile]",15.5,7.62,3.33,7.62,> 11.1,> 11.1,56.2,48.6
"C[C@H]1CCOCCN1c1nc(OC[C@@]23CCCN2C[C@H](F)C3)nc2c(F)c(-c3ccc(F)c4sc(N)c(C#N)c34)c(Cl)cc12 [Ex. 6, 2-amino-4-(6-chloro-8-fluoro-2-(((2R,7aS)-2-fluorotetrahydro-1H-pyrrolizin-7a(5H)-yl)methoxy)-4-((S)-5-methyl-1,4-oxazepan-4-yl)quinazolin-7-yl)-7-fluorobenzo[b]thio-phene-3-carbonitrile]",9.16,3.78,3.15,2.4,2.19,9.49,33.9,18.8
"N#Cc1c(N)sc2c(F)ccc(-c3ncc4c(N5CCCOCC5)nc(OC[C@@]56CCCN5C[C@H](F)C6)nc4c3F)c12 [Ex. 20, 2-amino-7-fluoro-4-(8-fluoro-2-(((2R,7aS)-2-fluorotetrahydro-1H-pyrrolizin-7a(5H)-yl)methoxy)-4-(1,4-oxazepan-4-yl)pyrido[4,3-d]pyrimidin-7-yl)benzo[b]thiophene-3-carbonitrile]",75.5,294,60,93.1,> 11.1,> 11.1,1420,510
"CN(C)C[C@@]1(COc2nc(N3CCCOCC3)c3cc(Cl)c(-c4ccc(F)c5sc(N)c(C#N)c45)c(F)c3n2)CC1(F)F [Ex. 24, 2-amino-4-(6-chloro-2-(((R)-1-((dimethylamino)methyl)-2,2-difluorocyclopropyl)methoxy)-8-fluoro-4-(1,4-oxazepan-4-yl)quinazolin-7-yl)-7-fluorobenzo[b]thiophene-3-carbonitrile]",30.4,51.8,9.52,28.8,> 11.1,> 11.1,233,93.1
"Cc1cc(N)nc(-c2c(Cl)cc3c(N4CCCCOCC4)nc(OC[C@@]45CCCN4C[C@H](F)C5)nc3c2F)c1C(F)(F)F [Ex. 39, 6-(6-chloro-8-fluoro-2-(((2R,7aS)-2-fluorotetrahydro-1H-pyrrolizin-7a(5H)-yl)methoxy)-4-(1,4-oxazocan-4-yl)quinazolin-7-yl)-4-methyl-5-(trifluoromethyl)pyridin-2-amine]",63.1,515,32.2,145,> 11.1,> 11.1,1320,422
"Cc1cc2[nH]ncc2c(-c2c(F)cc3c(N4CCCOCC4)nc(OC[C@@]45CCCN4C[C@H](F)C5)nc3c2F)c1C(F)(F)F [Ex. 44, 4-(6,8-difluoro-2-(((2R,7aS)-2-fluorotetrahydro-1H-pyrrolizin-7a(5H)-yl)methoxy)-7-(6-methyl-5-(trifluoromethyl)-1H-indazol-4-yl)quinazolin-4-yl)-1,4-oxazepane]",96.3,505,235,365,> 11.1,> 11.1,1300,901
"CC1COCCCN1c1nc(OC[C@@]23CCCN2C[C@H](F)C3)nc2c(F)c(-c3ccc(F)c4sc(N)c(C#N)c34)c(Cl)cc12 (stereo partly drawn) [compound 5, 2-amino-4-(6-chloro-8-fluoro-2-(((2R,7aS)-2-fluorotetrahydro-1H-pyrrolizin-7a(5H)-yl)methoxy)-4-(3-methyl-1,4-oxazepan-4-yl)quinazolin-7-yl)-7-fluorobenzo[b]thio-phene-3-carbonitrile]",18,15.2,6.15,13.4,> 11.1,> 11.1,123,120
